Measured values: ChEMBL document CHEMBL1158646, “Potential Antitumor Agents: A Cytotoxic Cardenolide From Coronilla varia” (1979)
≈ marks a conversion by molar mass, not a printed value. Calls of active or inactive are those of the source. The calls are words filed in the database; no cut-off is given here.

Tests used:
P388 [1] = experiment: Antitumor activity against mouse P388 cells in mouse assessed as median survival time at 8 mg/kg relative to control; type: functional, organism-based; design: dose 8 mg/kg
[2] = Cytotoxicity against human 9KB cells; type: functional; conditions: read-out: ED50 (the source's name)
L1210 = experiment: Cytotoxicity against mouse L1210 cells; type: functional, cell-based
Lewis lung carcinoma = experiment: Cytotoxicity against mouse LLC cells; type: functional, cell-based
B16 = experiment: Cytotoxicity against mouse B16 cells; type: functional, cell-based
P388 [3] = experiment: Antitumor activity against mouse P388 cells in mouse assessed as median survival time at 1.25 mg/kg relative to control; type: functional

Structure (SMILES) | Activity (P388 [1]) | EC50 [2] [µg/mL] | Activity (L1210) | Activity (Lewis lung carcinoma) | Activity (B16) | T/C (P388 [3]) [%]
C[C@]12CC[C@H]3[C@@H](CCC4=C[C@@H](O[C@@H]5OC[C@@H](O)[C@H](O)[C@H]5O)CC[C@@]43C=O)[C@@]1(O)CC[C@@H]2C1=CC(=O)OC1 [DEGLUCOHYRCANOSIDE] | inactive | 0.02 (≈ 0.0386 µM) | – | – | – | –
C[C@]12CC[C@H]3[C@@H](CCC4=C[C@@H](O[C@@H]5OC[C@@H](O[C@@H]6O[C@H](CO)[C@@H](O)[C@H](O)[C@H]6O)[C@H](O)[C@H]5O)CC[C@@]43C=O)[C@@]1(O)CC[C@@H]2C1=CC(=O)OC1 [HYRCANOSIDE] | – | 0.1 (≈ 0.147 µM) | inactive | inactive | inactive | 133
